Earlier results in patent US20230364242A1, “WATER-SOLUBLE COMPLEX CONTAINING BETA BLOCKER AND LECITHIN” (NISSAN CHEMICAL CORPORATION, priority 2020, published 2023).

Conditions: literature reports

Structure (SMILES): CC(C)NCC(O)COc1cccc2ccccc12 (stereo not shown) [propranolol]
- photolysis: decomposition particularly proceeds in an aqueous solution
